IC50 data for 27 compounds are collected here from patent publication US9328099B2, “Cyanomethylpyrazole carboxamides as janus kinase inhibitors” (Merck Sharp & Dohme Corp., priority 2011, dated 2016).

For one test, the target named is JAK1 (Homo sapiens (Human), UniProt P23458). In words: Jak Biochemical HTRF Assay, JAK1. Particulars: HTRF biochemical assay, GST-tagged catalytic domain; top concentration tested […]; read-out: JAK1 IC50. The source says:
(§1) Jak Biochemical HTRF Assay Protocol
(§2) Subsequent reagent additions employed an Agilent Bravo.
For orientation: TR-FRET usually uses a lanthanide donor and a delayed reading to cut background.

For another test, the target named is JAK2 (Homo sapiens (Human), UniProt O60674). Kind of test: Jak Biochemical HTRF Assay, JAK2. Particulars: HTRF biochemical assay, GST-tagged catalytic domain; top concentration tested […].
Sequence of JAK2 (O60674 849-1124): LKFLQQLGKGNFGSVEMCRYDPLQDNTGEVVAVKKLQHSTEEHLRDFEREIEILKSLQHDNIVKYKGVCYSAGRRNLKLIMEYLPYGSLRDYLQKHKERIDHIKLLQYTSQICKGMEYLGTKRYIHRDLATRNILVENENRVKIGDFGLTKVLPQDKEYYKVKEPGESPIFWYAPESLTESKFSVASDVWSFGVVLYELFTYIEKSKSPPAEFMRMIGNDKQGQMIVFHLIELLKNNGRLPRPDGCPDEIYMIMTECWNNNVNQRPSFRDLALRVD
Description: as §1, §2

Sequence of JAK1 (P23458 875-1153): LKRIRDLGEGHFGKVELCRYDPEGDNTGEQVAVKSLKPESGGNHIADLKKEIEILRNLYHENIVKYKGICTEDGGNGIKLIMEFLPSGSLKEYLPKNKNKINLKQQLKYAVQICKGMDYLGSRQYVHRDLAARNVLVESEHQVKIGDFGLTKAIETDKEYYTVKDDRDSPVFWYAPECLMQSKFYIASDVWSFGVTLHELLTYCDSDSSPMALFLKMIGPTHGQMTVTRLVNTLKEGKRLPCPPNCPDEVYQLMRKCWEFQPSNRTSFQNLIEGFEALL

For orientation: IC50 means the point on the concentration scale where inhibition reaches its midpoint. As for `CC(C)(C)OC(=O)N1CCC(CC#N)(n2cc(C(N)=O)c(Nc3ccc(S(N)(=O)=O)cc3)n2)CC1` [Example 9-20, tert-butyl 4-{4-carbamoyl-3-[(4-sulfamoylphenyl)amino]-1H-pyrazol-1-yl}-4-(cyanomethyl)piperidine-1-carboxylate], the 50% inhibitory concentration (IC50) turned out to be 0.1 nM at JAK1 and 1 nM against JAK2.

Turning to `N#CCC1(n2cc(C(N)=O)c(Nc3ccnc(F)c3)n2)CCC(NCc2ccc(C#N)cc2)CC1` (stereo not drawn) [Example 41-6, Cis or trans 1-{4-[(4-cyanobenzyl)amino]-1-(cyanomethyl)cyclohexyl}-3-[(2-fluoropyridin-4-yl)amino]-1H-pyrazole-4-carboxamide], the IC50 at JAK1 is 23 nM; against JAK2, 851 nM.

Take `CCC(F)(F)C(=O)N1CCC(CC#N)(n2cc(C(N)=O)c(Nc3ccnc(F)c3)n2)CC1` [Example 34-59, 1-[4-(cyanomethyl)-1-(2,2-difluorobutanoyl)piperidin-4-yl]-3-[(2-fluoropyridin-4-yl)amino]-1H-pyrazole-4-carboxamide]: the IC50 stood at 0.2 nM on JAK1 and 3 nM against JAK2.

Consider `N#CCC1(n2cc(C(N)=O)c(Nc3ccc(F)cc3)n2)CCN(C(=O)OCC2CCOC2)CC1` (stereo not drawn) [Example 30-22, tetrahydrofuran-3-ylmethyl 4-{4-carbamoyl-3-[(4-fluorophenyl)amino]-1H-pyrazol-1-yl}-4-(cyanomethyl)piperidine-1-carboxylate], for which the values for the IC50 at JAK1 and against JAK2 were 5 nM and 123 nM, respectively.

On to `CC(C)c1ccc(NC(=O)N2CC(CC#N)(n3cc(C(N)=O)c(Nc4ccccc4)n3)C2)cc1` [Example 38-7], for which the half-maximal inhibitory concentration (IC50) worked out at 5 nM at JAK1 and 80 nM against JAK2.

As for `N#CCC1(n2cc(C(N)=O)c(Nc3ccnc(F)c3)n2)CCN(Cc2cscn2)CC1` [Example 22-25, 1-[4-(cyanomethyl)-1-(1,3-thiazol-4-ylmethyl)piperidin-4-yl]-3-[(2-fluoropyridin-4-yl)amino]-1H-pyrazole-4-carboxamide], the IC50 on JAK1 came out at 6 nM; against JAK2, 208 nM.

`N#CCC1(n2cc(C(N)=O)c(Nc3ccnc(F)c3)n2)CCN(Cc2cccc(=O)[nH]2)CC1` [Example 22-67, 1-{4-(cyanomethyl)-1-[(6-oxo-1,6-dihydropyridin-2-yl)methyl]piperidin-4-yl}-3-[(2-fluoropyridin-4-yl)amino]-1H-pyrazole-4-carboxamide]: the IC50 at JAK1 came out at 1 nM; at JAK2, 68 nM.

`N#CCC1(n2cc(C(N)=O)c(Nc3ccc(S(=O)(=O)C(F)F)cc3)n2)CCC(N2CCC(F)(F)CC2)CC1` (stereo not drawn) [Example 40-31, Cis or trans 1-[1-(cyanomethyl)-4-(4,4-difluoropiperidin-1-yl)cyclohexyl]-3-({4-[(difluoromethyl)sulfonyl]phenyl}amino)-1H-pyrazole-4-carboxamide]: the IC50 at JAK1 was found to be 0.1 nM; against JAK2 it was 2 nM.

Turning to `N#CCC1(n2cc(C(N)=O)c(Nc3ccccc3)n2)CCN(Cc2c(F)cccc2F)CC1` [Example 21-23, 1-[4-(cyanomethyl)-1-(2,6-difluorobenzyl)piperidin-4-yl]-3-(phenylamino)-1H-pyrazole-4-carboxamide], the concentration for half-maximal inhibition (IC50) at JAK1 was determined as 0.8 nM; on JAK2 it was 13 nM.

In the case of `N#CCC1(n2cc(C(N)=O)c(Nc3ccc(F)cc3)n2)CCN(C(=O)OCC2CC2(F)F)CC1` (stereo not drawn) [Example 30-6, (2,2-difluorocyclopropyl)methyl 4-(4-carbamoyl-3-(4-fluorophenylamino)-1H-pyrazol-1-yl)-4-(cyanomethyl)piperidine-1-carboxylate], the 50% inhibitory concentration (IC50) at JAK1 is 0.9 nM; at JAK2, 38 nM.

Take `N#CCC1(n2cc(C(N)=O)c(Nc3ccc(F)cc3)n2)CCC(Nc2ccc(Cl)cc2)CC1` (stereo not drawn) [Example 40-52, Cis or trans 1-{4-[(4-chlorophenyl)amino]-1-(cyanomethyl)cyclohexyl}-3-[(4-fluorophenyl)amino]-1H-pyrazole-4-carboxamide]: the half-maximal inhibitory concentration (IC50) is 0.6 nM at JAK1 and 20 nM at JAK2.

Turning to `N#CCC1(n2cc(C(N)=O)c(Nc3ccccc3)n2)CN(C(=O)OC2CCCCC2)C1` [Example 30-57, cyclohexyl 3-[4-carbamoyl-3-(phenylamino)-1H-pyrazol-1-yl]-3-(cyanomethyl)azetidine-1-carboxylate], the IC50 came to 14 nM on JAK1 and 466 nM against JAK2.

Consider `N#CCC1(n2cc(C(N)=O)c(Nc3ccc(F)cc3)n2)CCN(CCF)CC1` [Example 24-1, 1-(4-(Cyanomethyl)-1-(2-fluoroethyl)piperidin-4-yl)-3-((4-fluorophenyl)amino)-1H-pyrazole-4-carboxamide], for which the IC50 on JAK1 was determined as 10 nM; against JAK2 it was 59 nM.

Regarding `COC1CN(C2CCC(CC#N)(n3cc(C(N)=O)c(Nc4ccnc(F)c4)n3)CC2)C1` (stereo not drawn) [Example 40-81, Cis or trans 1-[1-(cyanomethyl)-4-(3-methoxyazetidin-1-yl)cyclohexyl]-3-[(2-fluoropyridin-4-yl)amino]-1H-pyrazole-4-carboxamide], the IC50 worked out at 0.1 nM at JAK1 and 5 nM on JAK2.

`Cc1ccc(NC(=O)N2CC(CC#N)(n3cc(C(N)=O)c(Nc4ccccc4)n3)C2)cc1C` [Example 38-4, 1-{3-(cyanomethyl)-1-[(3,4-dimethylphenyl)carbamoyl]azetidin-3-yl}-3-(phenylamino)-1H-pyrazole-4-carboxamide]: the IC50 came out at 12 nM on JAK1 and 191 nM at JAK2.

`N#CCC1(n2cc(C(N)=O)c(Nc3ccnc(F)c3)n2)CCC(NCc2cccc(F)c2)CC1` (stereo not drawn) [Example 41-24, Cis or trans 1-{1-(cyanomethyl)-4-[(3-fluorobenzyl)amino]cyclohexyl}-3-[(2-fluoropyridin-4-yl)amino]-1H-pyrazole-4-carboxamide]: the half-maximal inhibitory concentration (IC50) on JAK1 amounted to 26 nM; on JAK2, 1030 nM.

As to `CC(C)(C)OC(=O)N1CCC(CC#N)(n2cc(C(N)=O)c(Nc3ccc(CC(=O)O)cc3)n2)CC1` [Example 18, [4-({1-[1-(tert-Butoxycarbonyl)-4-(cyanomethyl)piperidin-4-yl]-4-carbamoyl-1H-pyrazol-3-yl}amino)phenyl]acetic acid], the IC50 at JAK1 was 0.1 nM; against JAK2, 10 nM.

With `N#CCC1(n2cc(C(N)=O)c(Nc3ccc(F)cc3)n2)CCN(c2cncc(C(F)(F)F)c2)CC1` [Example 3-8, 1-{4-(cyanomethyl)-1-[5-(trifluoromethyl)pyridin-3-yl]piperidin-4-yl}-3-[(4-fluorophenyl)amino]-1H-pyrazole-4-carboxamide], the 50% inhibitory concentration (IC50) on JAK1 was 1 nM; against JAK2 it was 54 nM.

In the case of `N#CCC1(n2cc(C(N)=O)c(Nc3ccnc(F)c3)n2)CCN(Cc2cccnc2F)CC1` [Example 22-23, 1-{4-(cyanomethyl)-1-[(2-fluoropyridin-3-yl)methyl]piperidin-4-yl}-3-[(2-fluoropyridin-4-yl)amino]-1H-pyrazole-4-carboxamide], the IC50 came out at 0.1 nM on JAK1 and 6 nM against JAK2.

Take `N#CCC1(n2cc(C(N)=O)c(Nc3ccnc(F)c3)n2)CCC(Nc2ccc(Cl)cc2)CC1` (stereo not drawn) [Example 40-45, Cis or trans 1-{4-[(4-chlorophenyl)amino]-1-(cyanomethyl)cyclohexyl}-3-[(2-fluoropyridin-4-yl)amino]-1H-pyrazole-4-carboxamide]: the IC50 at JAK1 was 38 nM; on JAK2, 770 nM.

For `CC(C)(C)OC(=O)N1CCC(CC#N)(n2cc(C(N)=O)c(Nc3cccc(-c4ccc(Cl)cc4)c3)n2)CC1` [Example 15-1, tert-Butyl 4-{4-carbamoyl-3-[(4′-chlorobiphenyl-3-yl)amino]-1H-pyrazol-1-yl}-4-(cyanomethyl)piperidine-1-carboxylate], the IC50 at JAK1 worked out at 148 nM; on JAK2 it was 1480 nM.

As for `CC(C)(C)OC(=O)N1CCC(CC#N)(n2cc(C(N)=O)c(Nc3ccc(C(=O)N4CCOCC4)cc3)n2)CC1` [Example 9-25, tert-butyl 4-(4-carbamoyl-3-{[4-(morpholin-4-ylcarbonyl)phenyl]amino}-1H-pyrazol-1-yl)-4-(cyanomethyl)piperidine-1-carboxylate], the IC50 on JAK1 came to 0.3 nM; on JAK2, 0.7 nM.

As to `CN(C)c1ccc(C(=O)N2CCC(CC#N)(n3cc(C(N)=O)c(Nc4ccccc4)n3)CC2)cc1` [Example 34-23, 1-[4-(cyanomethyl)-1-{[4-(dimethylamino)phenyl]carbonyl}piperidin-4-yl]-3-(phenylamino)-lH-pyrazole-4-carboxamide], the half-maximal inhibitory concentration (IC50) on JAK1 worked out at 14 nM; against JAK2, 230 nM.

`N#CCC1(n2cc(C(N)=O)c(Nc3ccccc3)n2)CN(CC(F)(F)F)C1` [Example 19, 1-[3-(Cyanomethyl)-1-(2,2,2-trifluoroethyl)azetidin-3-yl]-3-(phenylamino)-1H-pyrazole-4-carboxamide]: the IC50 worked out at 162 nM on JAK1 and 870 nM against JAK2.

In the case of `Cc1cc(C)c(NC(=O)N2CC(CC#N)(n3cc(C(N)=O)c(Nc4ccccc4)n3)C2)c(C)c1` [Example 38-12, 1-{3-(cyanomethyl)-1-[(2,4,6-trimethylphenyl)carbamoyl]azetidin-3-yl}-3-(phenylamino)-1H-pyrazole-4-carboxamide], the 50% inhibitory concentration (IC50) at JAK1 worked out at 128 nM; at JAK2 it was 1440 nM.

For `N#CCC1(n2cc(C(N)=O)c(Nc3ccccc3)n2)CCN(Cc2ccccc2Cl)CC1` [Example 21-6, 1-[1-(2-chlorobenzyl)-4-(cyanomethyl)piperidin-4-yl]-3-(phenylamino)-1H-pyrazole-4-carboxamide], the figures for the IC50 on JAK1 and at JAK2 were 3 nM and 55 nM, respectively.

As to `N#CCC1(n2cc(C(N)=O)c(Nc3ccc(F)cc3)n2)CCN(c2ccc(C(F)(F)F)nc2)CC1` [Example 3-28, 1-{4-(cyanomethyl)-1-[6-(trifluoromethyl)pyridin-3-yl]piperidin-4-yl}-3-[(4-fluorophenyl)amino]-1H-pyrazole-4-carboxamide], the IC50 at JAK1 was 0.6 nM; against JAK2, 26 nM.
